Measurements reported in US11964941B2, “5-Bromo-indirubins” (City of Hope, priority 2014, dated 2024).
pIC50: −log10 of the molar value.

Tests used:
Assay type in all cases: cell-based, human
[1] = system: MOLM13 AML cells; test: MTS cell viability, MOLM13 AML cells (FLT3-ITD); details: Homo sapiens, MOLM-13, 48 h, read-out: IC50 for 50% inhibition of viability
Protocol: (§1) MTS assays were performed for cell viability. Human cancer cells were seeded in 96-well plates (2500 cells/well for solid tumors, 5000 cells/well for blood tumors), incubated overnight at 37 C in 5% CO2, and exposed to 5IN-1NH1 or 5IN-1NH1s in a dose-dependent manner for 48 h. See FIGS. 1A-1B, 2A-2B, 3, 4A-4B, and 6A-6B. Dimethyl sulfoxide (DMSO) was used as the vehicle control. Viable cell numbers were determined by tetrazolium conversion to its formazan dye and absorbance was measured at 490 nm using an automated ELISA plate reader. Each experiment was performed in quadruplicate. IC50 values were determined using CalcuSyn software (BIOSOFT®, Cambridge GB).
(§2) Compound (1289) inhibits viabilities of MV4-11 and MOLM13 AML cells that harbor an internal tandem duplication (ITD) mutation. MTS assays were performed for cell viability. Human MV4-11 and MOLM13 AML cells (5000/well) were seeded in 96-well plates, incubated overnight at 37° C. in 5% CO2, and exposed to compound (1289) in a dose-dependent manner for 48 h. Dimethyl sulfoxide (DMSO) was used as the vehicle control. Viable cell numbers were determined by tetrazolium conversion to its formazan dye and absorbance was measured at 490 nm using an automated ELISA plate reader. Each experiment was performed in quadruplicate. IC50 values were determined using CalcuSyn software.

[2] = system: MV4-11 AML cells; test: MTS cell viability, MV4-11 AML cells (FLT3-ITD); details: Homo sapiens, 48 h, read-out: IC50 for 50% inhibition of viability
Protocol: as §1, §2

[3] = system: SKOV3 ovarian cancer cells; test: MTS cell viability, SKOV3 ovarian cancer cells; details: Homo sapiens, SK-OV-3, 48 h, read-out: IC50 for 50% inhibition of viability
Protocol: as §1

[4] = system: T315I ABL1 mutant KCL22 CML cells; test: MTS cell viability, T315I ABL1 mutant KCL22 CML cells
Protocol: as §1
Human DU145 prostate cancer, A2058 melanoma, SKOV3 ovarian cancer and T315I ABL1 mutant KCL22 CML cells were seeded in 96-well plates (2500 cells/well for solid tumors, 5000 cells/well for blood tumors), incubated overnight at 37° C. in 5% CO2, and exposed to 5IN-6NC1, 5IN-1NH1, 5IN-6NNC6, or 5IN-6NNC7 in a dose-dependent manner for 48 h. Dimethyl sulfoxide (DMSO) was used as the vehicle control. Viable cell numbers were determined by tetrazolium conversion to its formazan dye and absorbance was measured at 490 nm using an automated ELISA plate reader. Each experiment was performed in quadruplicate. IC50 values were determined using CalcuSyn software.

[5] = system: MDA-MB-231 breast cancer cells; test: MTS cell viability, MDA-MB-231 breast cancer cells; details: Homo sapiens, 48 h, read-out: IC50 for 50% inhibition of viability
Protocol: as §1

[6] = system: KCL22 CML cells; test: MTS cell viability, KCL22 CML cells; details: Homo sapiens, KCL-22, 48 h, read-out: IC50 for 50% inhibition of viability
Protocol: as §1

[7] = system: DU145 prostate cancer cells; test: MTS cell viability, DU145 prostate cancer cells; details: Homo sapiens, DU-145, 48 h, read-out: IC50 for 50% inhibition of viability
Protocol: as §1

[8] = system: A549 lung cancer cells; test: MTS cell viability, A549 lung cancer cells; details: Homo sapiens, 48 h, read-out: IC50 for 50% inhibition of viability
Protocol: as §1

[9] = system: A2058 melanoma cells; test: MTS cell viability, A2058 melanoma cells; details: Homo sapiens, 48 h, read-out: IC50 for 50% inhibition of viability
Protocol: as §1

CNCCO/N=C1/C(=C2/C(=O)Nc3ccc(Br)cc32)Nc2ccccc21 [5IN-1NH1]
pIC50 [1]: 7.95 | pIC50 [2]: 8.11 | pIC50 [3]: 6.76 | pIC50 ([4]; Homo sapiens, KCL-22, T315I ABL1 mutant KCL22 CML cells, MTS, 48 h, read-out: IC50 for 50% inhibition of viability): 7.28 | potency against T315I KCL22 CML cells relative to compound (1289) ([4]; more potent than compound (1289)): around 10 fold | pIC50 [5]: 7.31 | pIC50 [6]: 7.24 | pIC50 [7]: 7.45 | pIC50 [8]: 7.18 | pIC50 [9]: 7.11
